In PubChem BioAssay AID651703 (Broad Institute, 2012):

What follows are compounds tested against Transforming acidic coiled-coil-containing protein 3 (Homo sapiens) (UniProt Q9Y6A5) (assay: inhibition of ARNT PAS-B/TACC3 complex formation – biochemical, AlphaScreen, cherry-picked samples, confirmation (AID 651703;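 note: TACC3 partner is the GST-tagged E629A mutant dimer; hits lower the signal meaning they disrupt ARNT binding to TACC3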)). Conditions: AlphaScreen His-ARNT PAS-B / GST-TACC3 binding, luminescence.
For `Brc1ccc(OCc2nc(-c3ccccn3)n[nH]2)cc1`, the AC50 was 3.6 µM. `C[C@H](CO)N1C[C@H](C)[C@@H](CN(C)S(=O)(=O)c2ccc(Cl)cc2)Oc2c(NC(=O)Nc3cccc4ccccc34)cccc2C1=O` showed an AC50 of 62 µM. `COc1cc(OC)c2c(-c3ccccc3)cc(=O)oc2c1C(CCN1CCCCC1)c1ccc(N(C)C)cc1` (stereo not given) was tested, and the AC50 was 7.83 µM. `C[C@H]1c2cccc(O)c2C(O)=C2C(=O)[C@]3(O)C(O)=C(C(N)=O)C(=O)[C@@H](N(C)C)C3[C@@H](O)C21` (stereo not given in full) was tested, and the AC50 was 33.5 µM. For `O=C(O)CCNc1cc(N2CCN(C(=O)c3ccco3)CC2)c2noc3c2c1C(=O)c1ccccc1-3`, the AC50 was 14.9 µM. Work on `Cc1cccc(C(=O)Nc2nnc(-c3ccncc3)o2)c1` yielded an AC50 of 36.5 µM. For `Oc1ccc(CN2CCC(Cc3ccccc3)CC2)c2cccnc12`, the AC50 was 2.48 µM. Compound `O=C(Nc1ccccc1C(F)(F)F)c1ncn[nH]1` has an AC50 of 13.1 µM. `CSCCC(=O)Nc1nc(-c2ccccn2)cs1` showed an AC50 of 8.98 µM. In the case of `Cc1ccnc2nc(C(=O)Nc3nc(-c4ccccn4)cs3)nn12`, the AC50 is reported as 2.53 µM. With `CC(Oc1cccc(Cl)c1)C(=O)Nc1nc(-c2ccccn2)cs1` (stereo not given) the AC50 was 18 µM. `Cc1cccc(NC(=O)CSc2cccc3cccnc23)c1` was tested, and the AC50 was 21.8 µM. `c1ccc(-c2nccc(-c3ccco3)n2)nc1` was tested, and the AC50 was 11.2 µM. For `CC(C)[C@H](NC(=O)c1ccccc1Cl)C(=O)Nc1nc(-c2ccccn2)cs1`, the AC50 was 6.72 µM. Compound `N#CC1(c2ccccc2)CCN(Cc2ccc(O)c3ncccc23)CC1` has an AC50 of 3.66 µM. For `O=S(=O)(N[C@@H]1CC[C@@H](CCn2cc(-c3ccccn3)nn2)O[C@@H]1CO)c1cccc(Cl)c1`, the AC50 was 27.2 µM. With `COc1cc(NS(=O)(=O)c2ccc(Nc3nc(-c4ccccn4)cs3)cc2)nc(OC)n1` the AC50 was 17.3 µM. `Cc1ccn2c(Nc3ccccc3C)c(-c3ccccn3)nc2c1` showed an AC50 of 3.69 µM. With `Cc1ccccc1-n1c(O)c(/C=N/NC(=O)c2ccncc2)c(=O)[nH]c1=O` the AC50 was 11.5 µM. Work on `N#CCC(=O)N/N=C\c1ccccc1OC/C=C/c1ccccc1` yielded an AC50 of 6.51 µM. With `c1ccc(-c2cn3c(n2)CCc2ccc4cccnc4c2-3)cc1` the AC50 was 21.2 µM. Work on `O=C(N[C@H]1CC[C@H](CCn2cc(-c3ccccn3)nn2)O[C@@H]1CO)c1ccc(F)cc1` yielded an AC50 of 23.1 µM. Compound `CCCC(=O)NC(c1cccs1)c1cc([N+](=O)[O-])c2cccnc2c1O` (stereo not given) has an AC50 of 3.51 µM. With `O=C(N[C@H]1CC[C@@H](CCn2cc(-c3ccccn3)nn2)O[C@H]1CO)c1ccccc1` the AC50 was 12.1 µM. `O=C(Nc1ccc(N2CCN(C(=O)c3ccccc3F)CC2)cc1)c1ncn[nH]1` showed an AC50 of 17.8 µM. In the case of `O=C(CNS(=O)(=O)c1ccc([N+](=O)[O-])cc1)N/N=C/c1ccc(O)cc1O`, the AC50 is reported as 19.2 µM. With `Cc1ccc(C2(C)NC(=O)N(CC(=O)Nc3nc(-c4ccccn4)cs3)C2=O)cc1` (stereo not given) the AC50 was 4.67 µM. `C[C@@H](C(=O)Nc1nc(-c2ccccn2)cs1)N1C(=O)C2CCCCC2C1=O` (stereo not given in full) gave an AC50 of 4.28 µM. `COc1ccc(S(=O)(=O)n2oc(=O)cc2-c2ccccc2)cc1OC` showed an AC50 of 2.6 µM. `c1ccc(-c2nnc(-c3ccccn3)nc2NCC2CCCCC2)cc1` gave an AC50 of 0.994 µM. In the case of `COc1cccc(C2c3[nH]c4ccccc4c3CCN2Cc2ncc[nH]2)c1` (stereo not given), the AC50 is reported as 38 µM. Work on `O=C(CC(=O)N/N=C/c1ccccc1O)NCc1cccnc1` yielded an AC50 of 32.8 µM. Compound `c1ccc(-c2nc(-c3ccncc3)n[nH]2)nc1` has an AC50 of 2.79 µM. With `O=S(=O)(c1ccccc1)N1C[C@H]2[C@@H](c3ccccc31)[C@@H](CO)N2Cc1ccccn1` the AC50 was 52.3 µM. For `O=C(CSc1nnc(-c2ccccn2)o1)Nc1ccccc1F`, the AC50 was 13 µM. With `COc1ccccc1-c1nnc(NC(=O)c2cccc(N3C(=O)CCC3=O)c2)o1` the AC50 was 29 µM. In the case of `Cc1ccc(S(=O)(=O)n2oc(=O)c(C3CCCCC3)c2N)cc1`, the AC50 is reported as 16 µM. `c1ccc(-c2nc3cc4ccccc4cc3[nH]2)nc1` showed an AC50 of 32.7 µM. Work on `CN(C)c1nc(-c2ccccn2)nnc1-c1ccccc1` yielded an AC50 of under 0.5 µM. `O=C(N[C@H]1CC[C@@H](CCn2cc(-c3ccccn3)nn2)O[C@H]1CO)c1cccnc1` showed an AC50 of 8.65 µM. Work on `O=C(NC12CC3CC(CC(C3)C1)C2)c1ccc(-c2ccccc2Cl)o1` yielded an AC50 of 51 µM. `COc1cc2c(c(OC)c1OC)-c1ccc(O)c(=O)cc1[C@@H](NC(C)=O)CC2` gave an AC50 of 40.8 µM. `CN1CC[C@@]2(C)c3cc(O)ccc3N(C)[C@@H]12` was tested, and the AC50 was 60.1 µM. For `c1ccc(-c2cn(C[C@H]3CC[C@H](Cn4cc(-c5ccccn5)nn4)O3)nn2)nc1`, the AC50 was under 0.5 µM. Compound `CCCn1nc(C(=O)Nc2nc(-c3ccccn3)cs2)c2ccccc2c1=O` has an AC50 of 9.63 µM. Compound `CC(C)(C)OC(=O)N1CCN(Cc2ccc(O)c3ncccc23)CC1` has an AC50 of 0.625 µM. For `Cn1c(-c2ccc(Cl)cc2)cnc1N`, the AC50 was 20.5 µM. In the case of `O=C(O)c1cc2c(cn1)[nH]c1ccccc12`, the AC50 is reported as 1.8 µM. In the case of `O=C(COc1nsnc1N1CCOCC1)N/N=C/c1ccccc1O`, the AC50 is reported as 34.9 µM. `COc1ccc(-c2nc(C#N)c(N3CCCCC3)o2)cc1` was tested, and the AC50 was 32.2 µM. Compound `CN1CCc2c(sc3c2C(=O)NC(c2ccccn2)N3)C1` (stereo not given) has an AC50 of 5.51 µM. In the case of `C[C@H](Nc1nc(-c2ccccn2)nnc1-c1ccccc1)C1CCCCC1`, the AC50 is reported as 0.53 µM. `O=C(CN1C(=O)CCC1=O)Nc1nc(-c2ccccn2)cs1` gave an AC50 of 4.39 µM. In the case of `O=C(CN1C(=O)C2C3C=CC(C3)C2C1=O)Nc1nc(-c2ccccn2)cs1` (stereo not given), the AC50 is reported as 6.76 µM. In the case of `c1ccc(-c2nnc(-c3ccccn3)nc2N2CCC(c3ccccc3)C2)cc1` (stereo not given), the AC50 is reported as 4.75 µM.
